This is an account of results in patent publication US10912815B2, “Inhibitors of mitochondrial fission and methods of use thereof” (The Board of Trustees of the Leland Stanford Junior …, priority 2011, dated 2021).

Residues, ends and D or L forms follow the SMILES beside them.

The target in one test is T1, Dnm1 (yeast Drp1) (Saccharomyces cerevisiae, UniProt P54861).
T1 sequence (P54861 1-757): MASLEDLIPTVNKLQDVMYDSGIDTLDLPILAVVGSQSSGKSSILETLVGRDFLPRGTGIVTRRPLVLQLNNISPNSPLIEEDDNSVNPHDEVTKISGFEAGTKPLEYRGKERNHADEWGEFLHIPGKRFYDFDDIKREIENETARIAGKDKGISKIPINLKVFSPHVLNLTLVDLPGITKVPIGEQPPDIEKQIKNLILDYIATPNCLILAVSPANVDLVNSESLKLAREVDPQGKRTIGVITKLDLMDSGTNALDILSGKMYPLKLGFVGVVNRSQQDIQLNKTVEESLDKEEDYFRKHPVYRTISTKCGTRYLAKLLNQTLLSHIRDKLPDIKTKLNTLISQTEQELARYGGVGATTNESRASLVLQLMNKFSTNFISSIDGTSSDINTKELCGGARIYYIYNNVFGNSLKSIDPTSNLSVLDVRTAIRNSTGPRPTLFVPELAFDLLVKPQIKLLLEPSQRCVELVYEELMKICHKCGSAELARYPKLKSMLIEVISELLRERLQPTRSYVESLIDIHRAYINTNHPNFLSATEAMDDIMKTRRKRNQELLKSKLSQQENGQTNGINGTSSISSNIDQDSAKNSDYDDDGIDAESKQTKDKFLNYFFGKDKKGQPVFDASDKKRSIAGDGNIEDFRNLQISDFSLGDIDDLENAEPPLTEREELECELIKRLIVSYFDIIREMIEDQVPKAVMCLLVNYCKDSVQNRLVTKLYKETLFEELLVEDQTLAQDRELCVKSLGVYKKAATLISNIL
The following applies: yeast and mammals, by blocking Dnm1 polymerization; cited from earlier work.

The test system of test [1] is isolated mouse liver mitochondria with Drp1 recombinant protein. In words: Membrane potential of isolated mouse liver mitochondria incubated with Drp1 (TMRM). The conditions noted are these: P110 1 μM, NAC 2.5 mM, FIG. 6D bottom. It is filed as biochemical. The method, then: (§1) Mitochondrial membrane potential was also determined using TMRM (tetramethylrhodamine methylester). Fifty μg of mitochondria were incubated with recombinant Drp1 (50 ng) followed by incubation with TMRM (0.5 μM) in the presence or absence of P110 (1 μM) or NAC (2.5 mM). Fluoresence detection was performed using black 96-well plates in a fluorescence microplate reader at 560 nm excitation and 690 nm emission and potential was assessed by quenching of the fluorescent signal. The data are presented as mean±S.E. of percentage relative to control mitochondria from three independent experiments (FIG. 6B, #, p<0.05 vs. control cells; *, p<0.05; **, P<0.01 vs. MPP+- or CCCP-treated cells). Isolated mouse liver mitochondria (50 μg) were incubated with Drp1 recombinant protein (50 ng) in the presence or absence of P110 (1 μM). A kinetic change of mitochondrial superoxide production was determined by using MITOSOX™ (red mitochondrial superoxide indicator). The data are presented as mean±S.E. of percentage relative to the value at basal level from three independent experiments (FIG. 6C, #, p<0.05 vs. control mitochondria; *, p<0.05 vs. mitochondria with the addition of Drp1). Mitochondrial membrane potential of isolated mouse liver mitochondria was determined by TMRM, as described above, in the indicated groups. NAC (2.5 mM) was used as a positive control (FIG. 6D). Protein levels of cytochrome c in the mitochondria were determined by western blot analysis with anti-cytochrome c antibodies in the indicated groups (insert, FIG. 6D). Total ROS production was determined by staining SH-SY5Y cells with CM2HDCFA (1 μM […] at 37° C.) in the indicated groups. The data are presented as mean±S.E. of percentage relative to control group from three independent experiments (FIG. 6E, *, p<0.05 vs. either MPP+ or CCCP treated-group; #, p<0.05 vs. control group).
The mitochondrial membrane potential of isolated mouse liver mitochondria was then measured in the presence or absence of P110.

A further test has as its target T2, Mfn1 (Homo sapiens, UniProt Q8IWA4).
T2 sequence (Q8IWA4 1-741): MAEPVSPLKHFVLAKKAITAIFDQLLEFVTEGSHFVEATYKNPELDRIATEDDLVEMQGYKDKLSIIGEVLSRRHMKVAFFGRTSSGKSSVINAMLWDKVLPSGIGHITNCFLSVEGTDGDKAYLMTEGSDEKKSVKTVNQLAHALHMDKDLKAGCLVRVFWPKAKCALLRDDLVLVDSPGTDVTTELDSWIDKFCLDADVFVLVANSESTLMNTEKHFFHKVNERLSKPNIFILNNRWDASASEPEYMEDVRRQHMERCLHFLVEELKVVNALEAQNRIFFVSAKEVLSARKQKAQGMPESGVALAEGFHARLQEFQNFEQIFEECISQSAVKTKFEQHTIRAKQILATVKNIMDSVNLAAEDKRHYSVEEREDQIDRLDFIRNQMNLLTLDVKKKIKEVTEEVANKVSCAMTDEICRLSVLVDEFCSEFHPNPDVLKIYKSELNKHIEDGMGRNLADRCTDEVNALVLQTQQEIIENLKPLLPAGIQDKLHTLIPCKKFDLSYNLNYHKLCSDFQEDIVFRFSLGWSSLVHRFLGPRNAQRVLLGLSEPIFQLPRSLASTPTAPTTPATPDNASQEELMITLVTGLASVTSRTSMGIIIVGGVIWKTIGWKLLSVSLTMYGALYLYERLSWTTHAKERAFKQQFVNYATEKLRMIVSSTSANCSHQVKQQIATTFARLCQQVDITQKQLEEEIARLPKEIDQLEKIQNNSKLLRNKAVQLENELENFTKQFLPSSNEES
In words: In vitro GTPase assay, recombinant Mfn1. It counts as biochemical. The following applies: p<0.05, n=3, FIG. 2F. How it is done:
(§2) First, mitochondrial fission inhibitor constructs were tested to determine what, if any, effects each peptide had on enzyme (GTPase) activity. Recombinant protein Drp1, Mfn1, OPA1 or dynamin-1 (25 ng) was incubated with the indicated modulator peptides for 30 min. GTPase activity was assayed in vitro using a GTPase assay kit (Innova Biosciences, Littleton, USA, or Novus Biologicals, Littleton, Colo.) according to manufacturer's instructions.

In a further test the target is T3, OPA1 (Homo sapiens, UniProt O60313).
T3 sequence (O60313 88-960): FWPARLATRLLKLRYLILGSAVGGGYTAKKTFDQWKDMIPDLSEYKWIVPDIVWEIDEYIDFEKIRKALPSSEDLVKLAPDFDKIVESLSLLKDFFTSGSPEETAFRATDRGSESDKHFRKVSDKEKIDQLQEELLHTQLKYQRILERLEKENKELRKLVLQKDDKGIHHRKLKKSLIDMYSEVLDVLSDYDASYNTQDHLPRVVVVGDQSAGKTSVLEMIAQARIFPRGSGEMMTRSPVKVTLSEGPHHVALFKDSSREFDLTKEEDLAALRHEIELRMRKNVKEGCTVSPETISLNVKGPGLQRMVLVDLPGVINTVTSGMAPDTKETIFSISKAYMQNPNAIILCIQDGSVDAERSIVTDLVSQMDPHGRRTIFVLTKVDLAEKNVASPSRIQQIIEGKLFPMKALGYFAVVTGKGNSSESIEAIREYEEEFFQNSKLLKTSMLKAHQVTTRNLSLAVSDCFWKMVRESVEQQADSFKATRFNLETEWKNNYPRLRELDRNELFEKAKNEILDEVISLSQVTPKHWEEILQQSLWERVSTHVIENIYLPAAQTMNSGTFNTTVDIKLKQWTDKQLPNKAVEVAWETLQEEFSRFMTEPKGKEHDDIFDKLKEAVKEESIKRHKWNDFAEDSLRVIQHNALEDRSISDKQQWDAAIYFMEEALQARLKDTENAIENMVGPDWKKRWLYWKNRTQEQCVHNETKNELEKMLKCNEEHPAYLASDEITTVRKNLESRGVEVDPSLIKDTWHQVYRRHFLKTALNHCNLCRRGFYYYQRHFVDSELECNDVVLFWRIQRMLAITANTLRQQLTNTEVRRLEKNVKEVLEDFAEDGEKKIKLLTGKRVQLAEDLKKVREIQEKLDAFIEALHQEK
In words: In vitro GTPase assay, recombinant OPA1. It is filed as biochemical. The following applies: p<0.05, n=3, FIG. 2F. How it is done:
as §2

Another test addresses Recombinant protein Drp1 (Homo sapiens, UniProt O00429). Briefly: In vitro GTPase assay, recombinant Drp1. It counts as biochemical. The following applies: for inhibition in the GTPase activity of recombinant Drp1: recombinant Drp1 25 ng, 30 min incubation with peptide, FIG. 2A. How it is done: as §2
Test [2] deals with isolated mouse liver mitochondria with Drp1 recombinant protein. In words: Superoxide production of isolated mouse liver mitochondria after addition of recombinant Drp1. It is filed as biochemical. The conditions noted are these: isolated mouse liver mitochondria 50 μg, Drp1 50 ng, P110 1 μM, p<0.05, n=3, FIG. 6C. How it is done: as §1, with “The data are presented as mean±S.E. of percentage relative to the value at basal level from three independent experiments (FIG. 6C, #, p<0.05 vs. control mitochondria; *, p<0.05 vs. mitochondria with the addition of Drp1).” left out, “NAC (2.5 mM) was used as a positive control (FIG. 6D).” left out, “The data are presented as mean±S.E. of percentage relative to control group from three independent experiments (FIG. 6E, *, p<0.05 vs. either MPP+ or CCCP treated-group; #, p<0.05 vs. control group).” left out

A further test has as its system SH-SY5Y cells. The conditions noted are these: peptides 1 μM each, MPP+ 2 mM for 24 hours, FIG. 9E.

Recombinant protein Drp1, sequence (O00429 1-710 isoform O00429-3): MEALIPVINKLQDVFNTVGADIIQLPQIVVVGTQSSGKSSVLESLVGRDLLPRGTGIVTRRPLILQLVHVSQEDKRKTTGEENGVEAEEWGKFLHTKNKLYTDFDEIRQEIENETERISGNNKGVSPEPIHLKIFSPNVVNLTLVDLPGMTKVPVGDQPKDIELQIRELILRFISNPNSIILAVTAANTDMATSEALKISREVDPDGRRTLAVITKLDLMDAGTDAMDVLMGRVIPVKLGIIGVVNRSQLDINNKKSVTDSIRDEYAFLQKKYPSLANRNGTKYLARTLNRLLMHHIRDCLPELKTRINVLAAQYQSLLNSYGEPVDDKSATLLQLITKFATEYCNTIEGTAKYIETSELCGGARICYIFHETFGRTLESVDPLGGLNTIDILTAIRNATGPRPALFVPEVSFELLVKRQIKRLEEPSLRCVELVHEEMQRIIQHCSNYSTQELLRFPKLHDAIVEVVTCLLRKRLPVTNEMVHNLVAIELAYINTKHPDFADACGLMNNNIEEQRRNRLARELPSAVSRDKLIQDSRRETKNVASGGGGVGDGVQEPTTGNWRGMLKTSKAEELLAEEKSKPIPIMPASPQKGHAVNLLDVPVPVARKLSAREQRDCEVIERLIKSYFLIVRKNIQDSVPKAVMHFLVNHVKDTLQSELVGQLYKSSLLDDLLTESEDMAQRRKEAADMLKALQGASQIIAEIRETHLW
Description for SH-SY5Y cells: Cell viability of stressed SH-SY5Y cells was measured by MTT assay.
In another experiment, Human SH-SY5Y cells were treated with Drp1 P108, P109 or P110 or Fis1 P111, P112 or P113 (0.5 μM) for 15 min followed by treatment with MPP+(1 mM for 24 hrs). The cell viability was then determined by MTT test.

Take `COc1cc(-n2c(=S)[nH]c3ccccc3c2=O)c(Cl)cc1Cl` [Mdivi-1]: at Dnm1 (yeast Drp1), the mitochondrial division entry is reported as “inhibits mitochondrial division”.
With `CC(=O)N[C@@H](CS)C(=O)O` [NAC, N-Acetyl cysteine, reference compound], in test [1], the “mitochondrial membrane potential (MMP) of isolated mitochondria after Drp1 addition” value is “prevented the dissipated MMP”.
For `CC(C)C[C@H](NC(=O)[C@H](CCCCN)NC(=O)CNC(=O)CNC(=O)[C@H](Cc1ccc(O)cc1)NC(=O)CNC(=O)[C@H](CCCNC(=N)N)NC(=O)[C@H](CCCCN)NC(=O)[C@H](CCCCN)NC(=O)[C@H](CCCNC(=N)N)NC(=O)[C@H](CCCNC(=N)N)NC(=O)[C@H](CCC(N)=O)NC(=O)[C@H](CCCNC(=N)N)NC(=O)[C@H](CCCNC(=N)N)NC(=O)[C@@H](N)CCCNC(=N)N)C(=O)N[C@@H](CO)C(=O)N[C@@H](C)C(=O)N[C@@H](CCCNC(=N)N)C(=O)N[C@@H](CCC(=O)O)C(=O)N[C@@H](CCC(N)=O)C(=O)N[C@@H](CCCNC(=N)N)C(=O)N[C@@H](CC(=O)O)C(N)=O` [P109] (H-RRRQRRKKRGYGGKLSAREQRD-NH2), on Mfn1, the “GTPase activity of MFN1 (increased)” value is 229%±10. In addition, the “GTPase activity of OPA1 (increased)” value at OPA1 was 177%±13. Moreover, the “inhibition in the GTPase activity of recombinant Drp1” value (“inhibition in the GTPase activity” below) at Recombinant protein Drp1 was 40%.
Consider `N=C(N)NCCC[C@H](NC(=O)[C@H](CCCCN)NC(=O)[C@H](CCCCN)NC(=O)[C@H](CCCNC(=N)N)NC(=O)[C@H](CCCNC(=N)N)NC(=O)[C@H](CCC(N)=O)NC(=O)[C@H](CCCNC(=N)N)NC(=O)[C@H](CCCNC(=N)N)NC(=O)[C@@H](N)CCCNC(=N)N)C(=O)NCC(=O)N[C@@H](Cc1ccc(O)cc1)C(=O)NCC(=O)NCC(=O)N[C@@H](CCCCN)C(=O)NCC(=O)N[C@@H](CO)C(=O)N[C@@H](CCCCN)C(=O)N[C@@H](CCC(=O)O)C(=O)N[C@@H](CCC(=O)O)C(=O)N[C@@H](CCC(N)=O)C(=O)N[C@@H](CCCNC(=N)N)C(=O)N[C@@H](CC(=O)O)C(N)=O` [P112] (H-RRRQRRKKRGYGGKGSKEEQRD-NH2), for which the “specifically inhibited Drp1 GTPase activity” value on Recombinant protein Drp1 (in vitro GTPase assay, n=3, first statement of b271) is 50%. At Recombinant protein Drp1, the “inhibition in the GTPase activity” value is on record as “no significant effect”.
In the case of “Drp1 K38A: dominant negative mutant of Drp1, which inhibits Drp1 GTPase activity and fission activity; positive control”, the “mitochondrial membrane potential (MMP) of isolated mitochondria after Drp1 addition” value in test [1] is recorded as “similar”. In test [2], the “Drp1-induced ROS (superoxide) elevation in the mitochondria” value is on record as “abolished”. Also, in the test with Recombinant protein Drp1, the “inhibition in the GTPase activity” value is reported as around 70%.
In the case of “RRRQRRKKRGYGGELLPKG (RRRQRRKKRGYGGELLPKGS) [P113, TAT47-57 carrier, GG linker, Fis1 region 113 peptide]”, the “cell viability (MTT)” value in the test on SH-SY5Y cells is recorded as “no significant effect”. In addition, the “inhibition in the GTPase activity” value with Recombinant protein Drp1 was “no significant effect”.
